Experimental data taken from US8609414B2, “Isolation and growth of stem cells from hemangiomas” (priority 2007, dated 2013).

System: hemangioma tumor spheres
Conditions: DMEM/F12 + 50 μg/ml VEGF + NEAA
Procedure: Another key property of stem cells is their ability to differentiate into mature cells. To assess whether hemangioma tumor sphere cells are able to differentiate into mature cells, tumor cells were cultured in appropriate growth factors.

**Q.** Which results are given for VEGF?
**A.** differentiation of hemangioma tumor sphere cells into mature cells (72 hours): differentiated into the endothelial-like tissue; time to changes in cell morphology (phase-contrast microscopy): ≤ 24 hours
